# Reference: ChEMBL document CHEMBL3588860, “Synthesis and antiproliferative activity of some novel benzo-fused imidazo[1,8]naphthyridinones” (Bioorg Med Chem Lett, 2015)
# Experiments:
# HCT-116 = assay: Antiproliferative activity against human HCT116 cells after 72 hrs by MTT assay; assay type: functional, cell-based; conditions: HCT-116, 72 h
# HeLa = assay: Antiproliferative activity against human HeLa cells after 72 hrs by MTT assay; assay type: functional, cell-based
# [1] = Antiproliferative activity against human FM3 cells after 72 hrs by MTT assay; assay type: functional, cell-based; conditions: FM3, 72 h
# Ishikawa = assay: Antiproliferative activity against human Ishikawa cells after 72 hrs by MTT assay; assay type: functional, cell-based
# Daudi = assay: Antiproliferative activity against human Daudi cells after 72 hrs by MTT assay; assay type: functional, cell-based
# [2] = Antiproliferative activity against human MES-SA cells after 72 hrs by MTT assay; assay type: functional, cell-based
# [3] = Antiproliferative activity against human MES-SA/Dx5 cells after 72 hrs by MTT assay; assay type: functional, cell-based; conditions: MES-SA/Dx5, 72 h
# MES-SA = assay: Ratio of IC50 for human MES-SA/Dx5 cells to IC50 for human MES-SA cells; assay type: functional
Structure (SMILES),IC50 (HCT-116) [µM],IC50 (HeLa) [µM],IC50 (Daudi) [µM],IC50 [1] [µM],IC50 (Ishikawa) [µM],IC50 [2] [µM],IC50 [3] [µM],Ratio IC50 (MES-SA)
O=c1c2ccccc2[nH]c2nc3c(cc12)ncn3-c1ccccc1,73.1,27.6,31.3,51.1,50,47.4,34.4,0.73
O=c1c2ccccc2[nH]c2nc3c(cc12)ncn3C1CCCC1,42.4,21.4,15.3,30.1,60.8,20,17.2,0.86
CCN(CC)CCn1c2ccccc2c(=O)c2cc3ncn(C(C)C)c3nc21,24.5,21.6,18,50.6,63.3,25.7,23.1,0.9
CCN(CC)CCn1c2ccccc2c(=O)c2cc3ncn(-c4ccccc4)c3nc21,12.9,7.27,4.93,4.83,11.3,5.2,10.4,1.99
CC(C)n1cnc2cc3c(=O)c4ccccc4[nH]c3nc21,37.4,29.7,34.7,66.7,62.5,37.6,46,1.23
O=C1c2c(O)ccc(O)c2C(=O)c2c(NCCNCCO)ccc(NCCNCCO)c21 [MITOXANTRONE],0.025,0.044,0.005,0.013,0.01,0.006,0.073,12.17
O=c1c2ccccc2n(CCO)c2nc3c(cc12)ncn3-c1ccccc1,32.9,15.3,20.5,74.8,101,51.7,47.9,0.93

# The next lines start with results.
IC50 (HCT-116) [µM],IC50 (HeLa) [µM],IC50 (Daudi) [µM],Structure (SMILES),IC50 [1] [µM],IC50 (Ishikawa) [µM],IC50 [2] [µM],IC50 [3] [µM],Ratio IC50 (MES-SA)
40.4,13.2,22.1,CC(C)n1cnc2cc3c(=O)c4ccccc4n(CCO)c3nc21,45.7,66.6,34.6,32.6,0.94
0.18,0.337,0.127,COc1cccc2c1C(=O)c1c(O)c3c(c(O)c1C2=O)C[C@@](O)(C(=O)CO)C[C@@H]3O[C@H]1C[C@H](N)[C@H](O)[C@H](C)O1 [DOXORUBICIN],0.123,0.1,0.035,2.81,80.2
30.4,28.9,18.9,CN(C)CCn1c2ccccc2c(=O)c2cc3ncn(C4CCCC4)c3nc21,42.4,39.1,32.8,25,0.76
48.7,23.4,19,O=c1c2ccccc2n(CCO)c2nc3c(cc12)ncn3C1CCCC1,66.4,66.4,22.9,22.2,0.97
8.2,11.7,10.6,CCN(CC)CCn1c2ccccc2c(=O)c2cc3ncn(C4CCCC4)c3nc21,28,28.6,10.6,15.5,1.46
12.4,9.32,12.9,CC(C)n1cnc2cc3c(=O)c4ccccc4n(CCN(C)C)c3nc21,17,39.4,22,16.1,0.73
27.9,23.3,33,CN(C)CCn1c2ccccc2c(=O)c2cc3ncn(-c4ccccc4)c3nc21,29.8,43.6,47.3,41.7,0.88
